Legend:
[1] = target: T1, human p38 MAP kinase (Homo sapiens, UniProt Q16539); assay: Inhibition of active type p38 MAP kinase (32P incorporation into Myelin Basic Protein), Reference Example K 1; format: biochemical; conditions: Reference Example H compounds, 30° C., 60 minutes
T1 construct: made in house; host or cells: Sf-21 insect cells, baculovirus (BAC-HP38 co-infected with BAC-caMKK3)
Experimental: Genetic manipulation methods described below are based on methods described in Maniatis et al., Molecular Cloning, ColdSpring Harbor Laboratory, 1989, and the appended reagent protocol.
(§1) (1) Cloning of Human p38 MAP Kinase Gene and Preparation of Recombinant Baculovirus
Cloning of human p38 MAP kinase gene was conducted by a PCR method using primer set p38 U: 5′-[…] C-3′ [SEQ ID No. 1] and PAG-L: 5′-[…]-3′ [SEQ ID No. 2] synthesized referring to the nucleotide sequence of p38 MAP kinase gene of Han et al., Science 265 (5173), 808 811 (1994), utilizing kidney cDNA (QUICK-Clone cDNA, manufactured by Toyobo Co., Ltd.) as a template.
A PCR reaction was performed according to Hot Start method using AmpliWax PCR Gem 100 (Takara Shuzo Co., Ltd.). For preparing lower layer mixed liquid, 2 μL of 10×LA PCR Buffer, 3 μL of 2.5 mM dNTP solution, each 2.5 μL of 12.5 μM primer solution, and 10 μL of sterile distilled water were mixed. For preparing upper layer mixed liquid, 1 μL of human heart cDNA (1 ng/mL) as a template, 3 μL of 10×LA PCR Buffer, 1 μL of 2.5 mM dNTP solution, 0.5 μL of TaKaRa LA Taq DNA polymerase (Takara Shuzo Co., Ltd.) and 24.5 μL of sterile distilled water were mixed. To the prepared lower mixed liquid was added one AmpliWax PCR Gem 100 (Takara Shuzo Co., Ltd.), treated for 5 minutes at 70° C. and 5 minutes in ice, then, the upper mixed liquid was added, to prepare a reaction solution for PCR. A tube filled with the reaction solution was set on Thermal Cycler (Perkin Elmer), then, treated for 2 minutes at 95° C. Further, a cycle including 15 seconds at 95° C. and 2 minutes at 68° C. was repeated 35 times, then, treated for 8 minutes at 72° C. The resulted PCR product was subjected to agarose gel (1%) electrophoresis, a 1.1 kb DNA fragment containing a p38 MAP kinase gene was recovered from the gel, then, pT7Blue-T vector (Takara Shuzo Co., Ltd.) was inserted to prepare a plasmid pHP38.
4.8 kb XhoI-KpnI fragment of plasmid pFASTBAC1 (CIBCOBRL) and 1.1 kb XhoI-Kpn fragment of the above-mentioned plasmid pHP38 were ligated to construct plasmid pFBHP38.
Plasmid pFBHP38 and BAC-TO-BAC Baculovirus Expression System (GIBCOBRL) were used to prepare virus stock BAC-HP38 of recombinant baculovirus.
(§2) (2) Cloning of Human MKK3 Gene and Preparation of Recombinant Baculovirus
Cloning of human MKK3 gene was conducted by a PCR method using primer set MKK-U: 5′-[…] 3′ [SEQ ID No. 3] and MKK-L: 5′-[…]-3′ [SEQ ID No. 4] synthesized referring to the nucleotide sequence of MKK3 gene of Derijard, B. et al., Science 267 (5198), 682 685 (1995), utilizing kidney cDNA (QUICK-Clone cDNA, manufactured by Toyobo Co., Ltd.) as a template.
A PCR reaction was performed according to Hot Start method using AmpliWax PCR Gem 100 (Takara Shuzo Co., Ltd.). […]

[2] = system: TNF-α production in THP-1 cells; assay: Measurement of inhibitory activity of TNF-α production (LPS-stimulated THP-1 cells, ELISA), Reference Example K 2; format: cell-based; conditions: Homo sapiens, Reference Example H compounds, LPS 5 μg/mL, 4 hours, read-out: IC50 (inhibition of TNF-α production)
Experimental: THP-1 cells cultured in a PRMI 1640 medium (Life Technologies, Inc., USA) containing 1% inactivated fetal bovine serum (Life Technologies, Inc.) and 10 mM HEPES (pH 7.5) were inoculated on a 96 well plate to give 1×10^5 cells/well, then, 1 μL of a sample compound dissolved in DMSO was added. After incubation for 1 hour at 37° C. in a CO2 incubator, LPS (Wako Pure Chemical Industries Ltd.) was added to give a final concentration of 5 μg/mL. After incubation for 4 hours at 37° C. in a CO2 incubator, the supernatant was obtained by centrifugal separation. The TNF-α concentration in the supernatant was measured by ELISA (R&D Systems, Quantikine Kit). The concentration (IC50 value) of a sample compound necessary for inhibiting 50% of TNF-α production was calculated by PRISM 2.01 (GraphPad Software).

[3] = target: T1, human p38 MAP kinase; assay: Measurement of the p38 MAP kinase inhibitory activity, 32P uptake into Myelin Basic Protein (Reference Example F 2); format: biochemical; conditions: active form p38 MAP kinase, 30° C. 60 minutes, read-out: IC50 (p38 MAP kinase inhibitory activity, uptake of 32P into acid insoluble fraction)
Experimental: The genetic manipulations described below were according to the methods described in the book (Maniatis et al., Molecular Cloning, Cold Spring Harbor Laboratory, 1989) or a method described in the protocol attached to the reagent.
as §1
Cloning of human p38 MAP kinase gene was performed by a PCR method using a primer set P38 U: 5′-[…]-3′ [SEQ ID NO:9] and PAG-L: 5′-[…]-3′ [SEQ ID NO:10] made by reference to the base sequence of p38 MAP kinase gene reported by Han et al. (Science 265 (5173), 808 811 (1994)) and employing kidney cDNA (Toyobo, QUICK-Clone cDNA) as a template.
A PCR reaction was performed by a Hot Start method using AmpliWax PCR Gem 100 (Takara Shuzo). As the lower mixed solution, 2 μL 10×LA PCR Buffer, 3 μL 2.5 mM dNTP solution, each 2.5 μL of 12.5 μM primer solution, and 10 μL sterile distilled water were mixed. As the upper mixed solution, 1 μL human cardiac cDNA (1 ng/mL) as a template, 3 μL 10×LA PCR Buffer, 1 μL 2.5 mM dNTP solution, 0.5 μL TaKaRa LA Taq DNA polymerase (Takara Shuzo), and 24.5 μL sterile distilled water were mixed. One AmpliWax PCR Gem 100 (Takara Shuzo) was added to the prepared lower mixed solution to treat at 70° C. for 5 minutes and for 5 minutes in an ice and, thereafter, the upper mixed solution was added to prepare a reaction solution for PCR. A tube containing the reaction solution was set at a thermal cycler (Perkin Elmer), which was treated at 95° C. for 2 minutes. Further, after repeating 35 times a cycle of 15 seconds at 95° C. and 2 minutes at 68° C., treatment was performed at 72° C. for 8 minutes. The resulting PCR product was subjected to agarose gel (1%) electrophoresis, 1.1 kb DNA fragment containing p38 MAP kinase gene was recovered from the gel and, thereafter, which was inserted into pT7Blue-T vector (Takara Shuzo) to make the plasmid pHP38.
The 4.8 kb XhoI-KpnI fragment of the plasmid pFASTBAC1 (CIBCOBRL) and the 1.1 kb XhoI-Kpn fragment of the above plasmid pHP38 were ligated to make the plasmid pFBHP38.
The plasmid pFBHP38 and BAC-TO-BAC Baculovirus Expression System (GIBCOBRL) were used to prepare the recombinant Baculovirus virusstock BAC-HP38.
as §2
Cloning of human MKK3 gene was performed by a PCR method using a primer set MKK-U: 5′-[…]-3′ [SEQ ID NO:11] and MKK-L: 5′-[…]-3′ [SEQ ID NO:12] made by reference to the base sequence of MKK3 gene reported by Derijard, B. et al., Science 267 (5198), 682 685 (1995) and using kidney cDNA (Toyobo, QUICK-Clone cDNA).
A PCR reaction was performed by a Hot Start method using AmpliWax PCR Gem 100 (Takara Shuzo). As the lower mixed solution, 2 μL 10×LA PCR Buffer, 3 μL 2.5 mM dNTP solution, each 2.5 μL of 12.5 μM primer solution, and 10 μL sterile distilled water were mixed. As the upper mixed solution, 1 μL human kidney cDNA (1 ng/mL), 3 μL 10×LA PCR Buffer, 1 μL 2.5 mM dNTP solution, 0.5 μL TaKaRa LA taq DNA polymerase (Takara Shuzo) and 24.5 μL sterile distilled water were mixed. One AmpliWax PCR Gem 100 (Takara Shuzo) was added to the prepared lower mixed solution to treat at 70° C. for 5 minutes and for 5 minutes in ice and, thereafter, the upper mixed solution was added to prepare a reaction solution for PCR. A tube containing the reaction solution was set at a thermal cycler (Perkin Elmer), which was treated at 95° C. for 2 minutes. Further, after repeating 35 times a cycle of 15 seconds at 95° C. and 2 minutes at 68° C., treatment was performed at 72° C. for 8 minutes. The resulting PCR product was subjected to agarose gel (1%) electrophoresis, 1.0 kb DNA fragment containing MKK3 gene was recovered from the gel and, thereafter, which was inserted into pT7Blue-T vector (Takara Shuzo) to make the plasmid pHMKK3. […]

[4] = system: TNF-α production; assay: Measurement of inhibiting activity of TNF-α production in LPS-stimulated THP-1 cells, ELISA (Reference Example F 3); format: cell-based; conditions: Homo sapiens, LPS 5 μg/mL, 4 hours, ELISA (R&D System)
Experimental: Measurement of Inhibiting Activity of TNF-α Production
After THP-1 cells which had been cultured in PRMI 1640 medium (manufactured by Life Technologies, Inc.) containing 1% non-activated bovine fetal serum (manufactured by Life Technologies, Inc., U.S.A.) and 10 mM HEPES (pH 7.5) seeded on a 96 well plate to 1×10^5 cells/well, 1 μL test compound dissolved in DMSO was added to there. After incubation at 37° C. for 1 hour in a CO2 incubator, LPS (Wako Pure Chemicals) was added to the final concentration 5 μg/mL. After cultured at 37° C. for 4 hours in a CO2 incubator, the supernatant was obtained by centrifugation. The concentration of TNF-α in the supernatant was measured with ELISA (R&D System, Quantikine Kit). The concentration (IC50 value) necessary for inhibiting TNF-α production by 50% was calculated by PRIMS 2.01 (Graphpad Software).

T1 sequence (Q16539 whole entry): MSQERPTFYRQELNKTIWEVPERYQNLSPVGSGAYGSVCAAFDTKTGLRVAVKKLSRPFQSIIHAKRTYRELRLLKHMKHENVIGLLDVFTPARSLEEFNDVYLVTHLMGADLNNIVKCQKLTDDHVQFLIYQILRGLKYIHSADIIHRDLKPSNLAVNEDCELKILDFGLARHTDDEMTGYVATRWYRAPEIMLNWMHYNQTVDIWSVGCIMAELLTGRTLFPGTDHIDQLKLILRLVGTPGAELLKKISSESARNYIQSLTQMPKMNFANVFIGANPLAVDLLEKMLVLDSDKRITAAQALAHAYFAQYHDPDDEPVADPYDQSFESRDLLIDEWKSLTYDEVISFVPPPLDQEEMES

| IC50 [1] | IC50 [2] | melting point | IC50 [3] | IC50 [4] | Structure (SMILES) |
| --- | --- | --- | --- | --- | --- |
| 0.0011 µM | 0.055 µM | 106 to 107 °C | – | – | CCc1nc(-c2cccc(Cl)c2)c(-c2ccnc(NC3CCCCC3)c2)s1 [36-10] |
| 0.0084 µM | 0.021 µM | 224 to 225 °C | – | – | CCC(=O)Nc1cc(-c2sc(-c3ccc(S(C)(=O)=O)cc3)nc2-c2cccc(Cl)c2)ccn1 [58-7] |
| – | – | – | 0.023 µM | 0.026 µM | COc1ccc(-c2nc(NC(=O)c3cccnc3)sc2-c2ccnc(NC(=O)c3cccnc3)c2)cc1 [D 3, N-[4-(4-methoxyphenyl)-5-[2-[(3-pyridylcarbonylamino)]-4-pyridyl]-1,3-thiazol-2-yl]nicotinamide] |
| – | – | – | 0.02 µM | 0.014 µM | COc1ccc(-c2nc(N)sc2-c2ccnc(NC(=O)c3ccccc3)c2)cc1 [D 4, N-[4-[2-amino-4-(4-methoxyphenyl)-1,3-thiazol-5-yl]-2-pyridyl]benzamide] |
| – | – | – | 0.023 µM | 0.14 µM | Cc1cc(C)cc(-c2nc(N)sc2-c2ccnc(NCc3ccccc3)c2)c1 [D 6, N-[4-[2-amino-4-(3,5-dimethylphenyl)-1,3-thiazol-5-yl]-2-pyridyl]benzylamine] |
| 0.01 µM | 0.12 µM | 149 to 150 °C | – | – | CCc1nc(-c2cccc(Cl)c2)c(-c2ccnc(NC(C)=O)c2)s1 [H 30-2, N-[4-[4-(3-chlorophenyl)-2-ethyl-1,3-thiazol-5-yl]-2-pyridyl]acetamide] |
| 0.0099 µM | 0.002 µM | 168 to 169 °C | – | – | Cc1cccc(-c2nc(N)sc2-c2ccnc(NC3CCCCC3)c2)c1 [H 34-2, [5 (2 cyclohexylamino-4-pyridyl)-4 (3 methylphenyl)-1,3thiazol-2 yl]amine] |

— patent US20050080113A1, “Medicinal compositions” (priority 2001, published 2005)
